Patent US11766430B2, “Methods of using a phenoxypropylamine compound to treat pain” (Minerva Neurosciences, Inc., priority 2018, dated 2023)
“Also recorded” adds a separate entry of the source.

How the values were obtained:
[1] = tested on: paclitaxel-induced peripheral neuropathic pain in rats; experiment: Reversal of paclitaxel-induced peripheral neuropathic pain, paw withdrawal threshold, chronic administration (Example 6); assay type: in vivo, Male Sprague Dawley rats; settings: for PWT compared to vehicle (in words): days 14, 21 and 28; for PWT after cessation of treatment (in words): 100 mg/kg orally, day 35, one week after cessation of treatment
Description: (§1) Male Sprague Dawley rats from Envigo were used in the study. Animals were received at approximately 250 g and housed 3 per cage upon arrival. All rats were examined, handled, and weighed prior to initiation of the study to assure adequate health and suitability. During the course of the study, 12/12 light/dark cycles was maintained. The room temperature was be maintained between 20 and 23° C. with a relative humidity maintained around 50%. Chow and water was provided ad libitum for the duration of the study. All testing was performed during the animal's light cycle phase.
(§2) Paclitaxel (2 mg/kg) was purchased from Biolyse Pharma and injected i.p. on four alternate days (day 1, 3, 5 and 7) for a total of 4 injections at a dose volume of 1 mL/kg.
(§3) Gabapentin (100 mg/kg) was dissolved in saline and administered orally at a dose volume of 1 mL/kg. For prevention study, gabapentin was administered on day 14, sixty minutes prior to test. For reversal study, gabapentin was administered once daily for 2 weeks. On test days it was administered 60 minutes prior to test.
Reversal study: MIN-117 (1, 3 and 10 mg/kg) was formulated in 0.5% (w/v) hydroxypropylmethyl cellulose (HPMC) 8°-120 centipoises in water and administered i.p once daily for 2 weeks at a dose volume of 1 mL/kg. On test days, MIN-117 was administered 2 hours prior to test.
(§4) Rats were administered paclitaxel (2 mg/kg) on four alternate days (days 1, 3, 5 and 7). Baseline and post treatment Paw Withdrawal Threshold (PWT) were evaluated using von Frey filaments (Semmes-Weinstein filaments, Stoelting, Wood Dale, Ill., USA) of varying stiffness (0.4, 0.7, 1.2, 2.0, 3.6, 5.5, 8.5, 10, 15, 26 g). Animals were placed on a perforated metallic platform and allowed to acclimate to their surroundings for a minimum of 15 minutes before each test session. Each filament was presented perpendicular to the plantar surface with sufficient force to cause slight buckling against the paw, and then held until a positive response is noted (paw sharply withdrawn). As described by Chaplan et al. 1994, once the threshold was crossed, the 2 responses straddling the threshold are retrospectively designated as the first 2 responses. Four additional responses were measured to stimuli varied sequentially up or down based on the animal's response. The 6 responses in the immediate vicinity of the threshold were used to calculate the 50% g threshold: 50% g threshold=(10^[Xf+k*d])/10000 Xf is the final filament used (in log units). The parameter k is from the Appendix 1 in Chaplan and was determined by the pattern of the von Frey responses (e.g. OXOXOX where ‘O’ indicates no response and ‘X’ denotes a withdrawal). The parameter d is the difference between stimuli which Chaplan used a constant d=0.224. To accommodate for the use of the 10 g and 26 g filaments, the exact difference between stimuli were used.
(§5) PWT was measured according to the Schematics in FIG. 9 (prevention) and FIG. 10 (reversal study).
Data was analyzed by analysis of variance (ANOVA) followed by post-hoc comparisons where appropriate. An effect will be considered significant if p<0.05. Data was represented as the mean and standard error to the mean (s.e.m). Statistical outliers that fell above or below 2 standard deviations of the mean were identified but not removed from the final analysis.

[2] = tested on: chemotherapy-induced peripheral neuropathic pain in rats; experiment: Paclitaxel-induced peripheral neuropathic pain, paw withdrawal threshold with von Frey filaments, single administration (Example 5); assay type: in vivo, Male Sprague Dawley rats
Description: Assessment of neuropathic pain using von Frey filaments was performed. Rats were administered paclitaxel (2 mg/kg) on four alternate days (days 1, 3, 5 and 7). Baseline and post treatment paw withdrawal thresholds (PWT) were evaluated using von Frey filaments (Semmes-Weinstein filaments, Stoelting, Wood Dale, Ill., USA) of varying stiffness (0.4, 0.7, 1.2, 2.0, 3.6, 5.5, 8.5, 10, 15, 26 g). Animals were placed on a perforated metallic platform and allowed to acclimate to their surroundings for a minimum of 15 minutes before each test session. Each filament was presented perpendicular to the plantar surface with sufficient force to cause slight buckling against the paw, and then held until a positive response is noted (paw sharply withdrawn). As described by Chaplan, S. R. et al. “Qualitative Assessment of Tactile Allodynia in the Rat Paw” Journal of Neuroscience Methods, 53 (1994), 55-63 (“Chaplan”), once the threshold was crossed, the 2 responses straddling the threshold are retrospectively designated as the first 2 responses. Four additional responses were measured to stimuli varied sequentially up or down based on the animal's response. The 6 responses in the immediate vicinity of the threshold were used to calculate the 50% g threshold: 50% g threshold=(10^[Xf+k*d])/10000
Xf is the final filament used (in log units). The parameter k is from the Appendix 1 in Chaplan and was determined by the pattern of the von Frey responses (e.g. OXOXOX where ‘O’ indicates no response and ‘X’ denotes a withdrawal). The parameter d is the difference between stimuli which Chaplan used a constant d=0.224. To accommodate for the use of the 10 g and 26 g filaments, the exact difference between stimuli were used.
as §1, with “(from Envigo, Ind., USA)” for “from Envigo”, “12 h/12 h” for “12/12”, “phase. Every effort was made to minimize suffering of animals. Rats with baseline PWT less than 12 g were not included in the study. Rats were balanced by body weight and by their pre-paclitaxel PWT values. ANOVA found no significant differences between the treatment groups.” for “phase.”
Paclitaxel was purchased from Biolyse Pharma (Ontario, Canada) and was injected i.p. (2 mg/kg) on four alternate days (day 1, 3, 5 and 7) for a total of 4 injections at a dose volume of 1 mL/kg.
Rats were subsequently balanced and assigned to treatment groups based on post-paclitaxel PWT values. On test day, PWT was assessed two hours post vehicle or MIN-117 injections and one hour after gabapentin administration.
Gabapentin was purchased from Toronto Research Chemicals and was dissolved in saline and administered orally 60 minutes prior to test at a dose volume of 1 mL/kg. MIN-117 (1, 3 and 10 mg/kg), formulated in 0.5% (w/v) hydroxypropylmethylcellulose (HPMC, Sigma-Aldrich), was administered i.p. at a dose volume of 1 mL/kg. MIN-117 was administered 2 hours prior to test.

[3] = tested on: paclitaxel-induced peripheral neuropathic pain in rats; experiment: Prevention of paclitaxel-induced peripheral neuropathic pain, paw withdrawal threshold, chronic administration (Example 6); assay type: in vivo, Male Sprague Dawley rats; settings: 100 mg/kg orally on day 14, sixty minutes prior to test (acute)
Description: as §1, §2, §3
Prevention study: MIN-117 (10 mg/kg) was formulated in 0.5% (w/v) hydroxypropylmethyl cellulose (HPMC) 8°-120 centipoises in water and was administered i.p once daily for 7 or 14 days at a dose volume of 1 mL/kg. On test days, MIN-117 was administered 2 hours prior to test.
as §4, with “The 6 responses in the immediate vicinity of the threshold were used to calculate the 50% g threshold: 50% g threshold=(10^[Xf+k*d])/10000 Xf is the final filament used (in log units).” left out, “The parameter d is the difference between stimuli which Chaplan used a constant d=0.224. To accommodate for the use of the 10 g and 26 g filaments, the exact difference between stimuli were used.” left out
as §5
Data was analyzed by analysis of variance (ANOVA) followed by post-hoc comparisons where appropriate. […]

[4] = Body weight during the chemotherapy induced neuropathic pain study (Example 5); assay type: in vivo, Male Sprague Dawley rats; settings: paclitaxel days 1, 3, 5, 7; test compound on day 14; repeated measures ANOVA
Description: as §1, with “(from Envigo, Ind., USA)” for “from Envigo”, “12 h/12 h” for “12/12”, “phase. Every effort was made to minimize suffering of animals. Rats with baseline PWT less than 12 g were not included in the study. Rats were balanced by body weight and by their pre-paclitaxel PWT values. ANOVA found no significant differences between the treatment groups.” for “phase.”

[5] = tested on: paclitaxel-induced neuropathy in rats; experiment: Other antidepressants in paclitaxel-induced neuropathy, paw withdrawal threshold (Example 7); assay type: in vivo; settings: 60 min. following administration
Description: Two classes of antidepressants were also evaluated in Paw Withdrawal Threshold (PWT) experiments: duloxetine, a serotonin norepinephrine reuptake inhibitor, and amitriptyline, a tricyclic antidepressant.
On day 22, post-paclitaxel administration (left-most columns in FIG. 16 correspond to rats not administered paclitaxel), rats were administered vehicle (second columns from left in FIG. 16) or duloxetine (orally) and PWT was assessed 60 min. following injection. Data represents mean±s.e.m. (* p<0.05 vs. vehicle/vehicle).
On day 27, post-paclitaxel administration (left-most columns in FIG. 17 correspond to rats not administered paclitaxel), rats were administered vehicle (second columns from left in FIG. 17) or amitriptyline (orally) and PWT was assessed 60 min. following injection. Data represents mean±s.e.m. (* p<0.05 vs. vehicle/vehicle, #p<0.05 vs. paclitaxel/vehicle).

Cc1nnc(-c2cc3c(OC[C@@H](O)CN4CCC(c5ccc(Cl)c(Cl)c5)CC4)cccc3o2)o1 [Compound I, (2S)-1-(4-(3,4-dichlorophenyl)piperidin-1-yl)-3-((2-(5-methyl-1,3,4-oxadiazol-2-yl)benzofuran-4-yl)oxy)propan-2-ol]
PWT compared to vehicle (in words) ([1]; 1 mg/kg i.p. once daily for 2 weeks, 2 hours post dosing): significant increases in pain with threshold
PWT compared to vehicle (in words) ([1]; 3 mg/kg i.p. once daily for 2 weeks, 2 hours post dosing): significant increases in pain with threshold
PWT compared to vehicle (in words) ([1]; 10 mg/kg i.p. once daily for 2 weeks, 2 hours post dosing): significant increases in pain with threshold

NCC1(CC(=O)O)CCCCC1 [Gabapentin, reference compound]
Paw withdrawal threshold (PWT) compared to vehicle (in words) ([2]; Day 14 after first paclitaxel, administered orally 60 minutes prior to test): significant increase in PWT
Paw withdrawal threshold (PWT), Day 14 Avg., Mean ([2]; Paclitaxel + Gabapentin (100 mg/kg), oral, 60 minutes prior to test, Count 12): 19.633 g
Mean Diff. of Day 14 Avg. PWT, Fisher's PLSD ([2]; Paclitaxel + Vehicle, Paclitaxel + Gabapentin (100 mg/kg)): −15.759
PWT compared to vehicle (in words) [3]: significant increase in PWT; also recorded: significantly higher PWT
PWT compared to vehicle (in words) ([1]; 100 mg/kg orally once daily for 2 weeks (chronic), 1 hour post dosing): significant increase in PWT; also recorded: significantly higher PWT
PWT after cessation of treatment (in words) [1]: returned to vehicle levels
PWT after cessation of treatment (in words) ([1]; listed as gabapentin): no significant effect on PWT
Body weight during the study, between groups (in words) [4]: no significant difference between groups

CN(C)CCC=C1c2ccccc2CCc2ccccc21 [amitriptyline]
Effect on PWT in paclitaxel-treated rats (in words) ([5]; 3 mg/kg orally, day 27 post-paclitaxel): not found to reverse paclitaxel-induced neuropathy
Effect on PWT in paclitaxel-treated rats (in words) ([5]; 10 mg/kg orally, day 27 post-paclitaxel): not found to reverse paclitaxel-induced neuropathy
Effect on PWT in paclitaxel-treated rats (in words) ([5]; 30 mg/kg orally (highest dose tested), day 27 post-paclitaxel): only partially reversed

CNCC[C@H](Oc1cccc2ccccc12)c1cccs1 [duloxetine]
Effect on PWT in paclitaxel-treated rats (in words) ([5]; 3 mg/kg orally, day 22 post-paclitaxel): no effect on PWT
Effect on PWT in paclitaxel-treated rats (in words) ([5]; 10 mg/kg orally, day 22 post-paclitaxel): no effect on PWT
Effect on PWT in paclitaxel-treated rats (in words) ([5]; 30 mg/kg orally, day 22 post-paclitaxel): no effect on PWT
